Here are results for one compound from PMC6933938, “Comparative physiological, metabolomic, and transcriptomic analyses reveal developmental stage-dependent effects of cluster bagging on phenolic metabolism in Cabernet Sauvignon grape berries” (BMC Plant Biology, 2019).

This assay concerns the target T1, VviFLS4 (Vitis vinifera, UniProt Q2PHJ7).
T1 construct: gene FLS4; pET-48b(+), printed as C-terminal 6xHis tag fusion; E. coli BL21(DE3), Ni2+ column; tag removal not mentioned
T1 sequence (Q2PHJ7 1-335): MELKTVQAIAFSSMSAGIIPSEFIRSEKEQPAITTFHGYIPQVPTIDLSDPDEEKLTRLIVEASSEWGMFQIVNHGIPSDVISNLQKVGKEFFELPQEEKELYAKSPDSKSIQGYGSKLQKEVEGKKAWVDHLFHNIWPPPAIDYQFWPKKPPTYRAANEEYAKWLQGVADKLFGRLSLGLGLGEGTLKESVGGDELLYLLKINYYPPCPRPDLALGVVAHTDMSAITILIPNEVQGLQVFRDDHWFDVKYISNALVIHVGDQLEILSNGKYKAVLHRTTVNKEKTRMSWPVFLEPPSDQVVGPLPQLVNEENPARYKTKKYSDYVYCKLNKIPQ
Put plainly: HPLC-MS product analysis. Format: biochemical. As to conditions: converted to kaempferol; 0.5 uM substrate, 10 mM alpha-ketoglutaric acid, 0.25 mM FeSO4, 10 mM ascorbic acid, 100 mM NaH2PO4 pH 6.0, 25 C, 1 h.

For the compound `O=C1c2c(O)cc(O)cc2O[C@H](c2ccc(O)cc2)[C@H]1O` [dihydrokaempferol], the HPLC-MS product analysis entry was “DHK into kaempferol, and dihydroquercetin (DHQ) into quercetin, respectively”.
